Series [1] has as its system NaPi2b. Put plainly: Competition with phosphate: uptake assay repeated at 2.1 vs 0.1 mM phosphate. In kind it is cell-based. The following applies: potency for inhibition of NaPi2b at 2.1 vs 0.1 mM phosphate. The source says:
In certain preferred embodiments, the phosphate transport inhibitors of the present invention are not competitive inhibitors with respect to phosphate of Na/phosphate co-transport. In certain other preferred embodiments, the phosphate transport inhibitors of the invention are non-competitive inhibitors. Non-competitive inhibitors maintain their degree of inhibition irrespective of the local phosphate concentration. This feature is an important aspect in providing an efficient blockade of intestinal transport in postprandial state, where the local concentration of dietary phosphate can attain concentration as high as 10 mM. It is believed that competitive inhibitors are too sensitive to local phosphate concentration and unable to block phosphate uptake following a high phosphorus meal. Various methods are available for determining whether a phosphate transport inhibitor is non-competitive or competitive. For example, a phosphate uptake assay can be performed and the IC50 values for a compound at different phosphate concentrations can be determined (e.g., “Enzyme kinetics”, I. Segel, 1975, John-Wiley & Sons, p. 123). IC50 values for non-competitive inhibitors will remain the same or similar with respect to the phosphate concentration, whereas IC50 values for competitive inhibitors will increase (i.e. lose potency) as phosphate concentration increases.
To ascertain if an inhibitor was competitive for binding with phosphate, the procedure was repeated, but raising the concentration of the substrate in the assay mixture from 0.1 to 2.1 mM phosphate.

Series [2] can be described thus: Stability in simulated gastric and intestinal fluid. In kind it is in vitro ADME. The following applies: 6 hr, 1-20 μM; for % remaining, SGF: simulated gastric fluid with 3 mg/mL pepsin; for % remaining, SIF: simulated intestinal fluid with 3 mg/mL pancreatin. The method, then: Test compounds were incubated at 1-20 μM in simulated gastric fluid (SGF; standard USP solution with 3 mg/mL pepsin) or simulated intestinal fluid (SIF; standard USP solution with 3 mg/mL pancreatin) for 3 hr or 6 hr. HPLC-UV or HPLC-MS were used to determine test compound levels using peak area %. Results (Table 5) were reported as the percentage of test compound remaining after incubation in a given condition relative to test compound present at t=0 in the same condition.

In series [3] the test system is Uptake of Phosphate from the Intestine. The series is described as follows: In vivo bolus phosphorus challenge. Set-up: species or system Sprague-Dawley rats. Particulars: rats on low-phosphorus diet, oral drug dose 30 (unit not given) 15 min before phosphate bolus, serum 30 min post bolus. As for the experimental part:
By pretreating animals with a low phosphorus diet followed by the subsequent dosing of a phosphorus bolus, serum phosphorus levels were monitored after 30 minutes as a surrogate for intestinal phosphorus absorption. […] The in vivo bolus phosphorus challenge model used here mimics this model in rats.
Male, 7-week-old Sprague-Dawley rats (Charles-River laboratories international, Hollister, Calif.) were allowed to acclimatize for a minimum of 3 days before switching to a synthetic low-phosphorus diet (TD.85010, Harlan Teklad, Madison, Wis.) which contains 0.1% phosphorus and 0.6% calcium. At day 5, testing compounds or vehicle alone (as indicated) were orally administered at the indicated dose in a volume of 5 ml/kg, followed by a bolus gavage of monobasic sodium phosphate (1 mmol in 1 ml) 15 min after compound dosing. Serum was collected via retroorbital bleeding 30 min post phosphate bolus and phosphate levels were determined utilizing an ACE ALERA blood chemistry analyzer (Alfa Wassermann Diagnostic Technologies, West Caldwell, N.J.).
The extent of inhibition by test compounds on the elevation of serum phosphate levels in response to the bolus of phosphate is shown in Table 3 (data are expressed as % Inhibition, with 6-10 animals per data point). The differences between groups were evaluated by one-way analysis of variance with Dunnett's post hoc tests.

Series [4] deals with Uptake of Phosphorus from the Intestine. Put plainly: In vivo co-dosing in chow, urinary P output relative to P consumed. Set-up: species or system Sprague-Dawley rats. The following applies: rats, compound in chow, nominal 100 mg/kg/day (mean actual 104-105 mg/kg/day), mean of 24-96 h, vs control. The source says: Male, 7-week-old Sprague-Dawley rats (Charles-River laboratories international, Hollister, Calif.) were allowed to acclimate for a minimum of 3 days. The experiment was initiated by switching animals to a synthetic diet (0.6% phosphorus and 0.6% calcium, Harlan Teklad TD.84122) for four days. After this time, the animals were placed into metabolic cages for daily monitoring of food and water consumption, as well as urine and fecal collections. Test compounds were incorporated into the powdered diet listed above containing 3% chocolate flavoring (w/w, BioSery #7345) at 1.3 mg test compound per gram of diet to achieve an average daily nominal dose of 100 mg/kg/day. The actual dose received by each animal was later determined by measuring prepared diet consumption and body weight. Urine samples were collected in three daily periods from 24-48, 48-72, and 72-96 hours of drug dosing. […] Phosphorous levels in the urine were determined by anion exchange chromatography using a Dionex ICS-3000 ion chromatography system. […] Elution of urine phosphate ions was monitored via conductivity detector and reported as ppm relative to a standard ion solution containing phosphate. Daily urinary P output relative to the P consumed in the prepared diet for each animal was calculated. […] The differences between the means of control and treated groups were evaluated by t tests. […]

Take `O=C(O)CCOCCOCCOCCNC(=O)Cc1cccc(SCc2cccc(C(=O)Nc3ccc(N4CCCCC4)cc3C(=O)Nc3ccn(-c4cccc(C(F)(F)F)c4)n3)c2)c1` [Example 26, 2-Oxo-1-(3-((3-((4-(piperidin-1-yl)-2-((1-(3-(trifluoromethyl)phenyl)-1H-pyrazol-3-yl)carbamoyl)phenyl)carbamoyl)benzyl)thio)phenyl)-6,9,12-trioxa-3-azapentadecan-15-oic acid]: in series [1], the “Competitive with respect to Pi?” value is “No”. Moreover, in series [2], the “% remaining, SGF” value was 91% and the “% remaining, SIF” value is recorded as 95%.

For `CN(CCN1CCOCC1)C(=O)c1cccc(C(=O)Nc2ccc(N3CCCCC3)cc2C(=O)Nc2ccn(-c3cccc(C(F)(F)F)c3)n2)c1` [Example 11, N1-Methyl-N1-(2-morpholinoethyl)-N3-(4-(piperidin-1-yl)-2-((1-(3-(trifluoromethyl)phenyl)-1H-pyrazol-3-yl)carbamoyl)phenyl)isophthalamide], in series [3], the “% Inhibition of Serum P elevation” value is reported as 30.0%. Moreover, the “Competitive with respect to Pi?” value in series [1] is given as “No”.

Take `CN(CCN1CCOCC1)C(=O)c1cccc(C(=O)Nc2ccc(Cl)cc2C(=O)Nc2ccn(-c3cccc(C(F)(F)F)c3)n2)c1` [Example 14, N1-(4-Chloro-2-((1-(3-(trifluoromethyl)phenyl)-1H-pyrazol-3-yl)carbamoyl)phenyl)-N3-methyl-N3-(2-morpholinoethyl)isophthalamide 2,2,2-trifluoroacetate]: the “Mean % inhibition Urine Pout/P consumed” value in series [4] was determined as 12%. In addition, in series [2], the “% remaining, SGF” value is listed as 93% and the “% remaining, SIF” value is recorded as 72%.

(Values after patent US9289430B2, “Compounds and methods for inhibiting phosphate transport” (Ardelyx, Inc., priority 2010, dated 2016).)
